# Reference: patent publication US6448405B1, “Steroid receptor modulator compounds and methods” (Ligand Pharmaceuticals Incorporated, priority 1994, dated 2002)
# Read-outs that look alike come from different tables or passages of the source.
# Experiments:
# human PR-B = target: T1, human PR-B (Homo sapiens, UniProt P06401); test: Co-transfection assay, PR agonist and antagonist activity, CV-1 cells; type: cell-based; details: for EC50: agonist mode, read-out: PR Agonist CV-1 Cells Potency;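 as to all read-outs here: luciferase reporter driven by a hormone response element, co-transfected with human PR-B into CV-1 monkey kidney cells, agonists raise and antagonists lower the reporter signal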
# T1 construct: expressed in transfected cells; host or cells: CV-1 cells (African green monkey kidney fibroblasts), transient transfection
# T1 sequence (P06401 1-933): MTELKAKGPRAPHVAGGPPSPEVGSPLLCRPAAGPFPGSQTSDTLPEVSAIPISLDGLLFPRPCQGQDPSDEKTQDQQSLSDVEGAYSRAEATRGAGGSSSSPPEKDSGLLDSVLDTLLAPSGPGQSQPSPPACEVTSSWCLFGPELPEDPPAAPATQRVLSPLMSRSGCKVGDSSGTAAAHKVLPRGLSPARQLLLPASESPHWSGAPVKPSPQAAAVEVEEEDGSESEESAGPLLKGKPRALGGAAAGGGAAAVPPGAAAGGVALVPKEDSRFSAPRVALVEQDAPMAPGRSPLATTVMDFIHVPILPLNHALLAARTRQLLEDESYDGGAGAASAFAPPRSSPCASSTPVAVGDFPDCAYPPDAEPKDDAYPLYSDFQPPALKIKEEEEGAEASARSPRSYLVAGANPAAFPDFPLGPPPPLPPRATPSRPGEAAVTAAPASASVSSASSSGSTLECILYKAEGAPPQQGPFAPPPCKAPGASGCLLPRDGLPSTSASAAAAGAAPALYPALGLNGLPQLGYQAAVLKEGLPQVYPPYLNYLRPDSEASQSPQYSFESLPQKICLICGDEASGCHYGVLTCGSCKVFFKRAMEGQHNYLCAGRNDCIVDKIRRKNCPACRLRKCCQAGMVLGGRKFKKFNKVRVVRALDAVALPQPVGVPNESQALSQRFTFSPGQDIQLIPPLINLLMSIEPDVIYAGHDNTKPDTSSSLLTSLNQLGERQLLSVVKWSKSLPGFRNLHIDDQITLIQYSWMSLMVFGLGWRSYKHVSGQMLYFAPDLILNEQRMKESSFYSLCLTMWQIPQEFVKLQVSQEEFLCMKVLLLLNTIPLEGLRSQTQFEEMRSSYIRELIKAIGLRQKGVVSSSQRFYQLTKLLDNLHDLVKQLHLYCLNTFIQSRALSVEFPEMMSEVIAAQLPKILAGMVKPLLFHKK
# [1] = target: T2, human progesterone receptor A form (PR-A) (Homo sapiens, UniProt P06401); test: PR binding assay, baculovirus extract, [3H] progesterone
# T2 sequence (P06401 1-769 isoform P06401-2): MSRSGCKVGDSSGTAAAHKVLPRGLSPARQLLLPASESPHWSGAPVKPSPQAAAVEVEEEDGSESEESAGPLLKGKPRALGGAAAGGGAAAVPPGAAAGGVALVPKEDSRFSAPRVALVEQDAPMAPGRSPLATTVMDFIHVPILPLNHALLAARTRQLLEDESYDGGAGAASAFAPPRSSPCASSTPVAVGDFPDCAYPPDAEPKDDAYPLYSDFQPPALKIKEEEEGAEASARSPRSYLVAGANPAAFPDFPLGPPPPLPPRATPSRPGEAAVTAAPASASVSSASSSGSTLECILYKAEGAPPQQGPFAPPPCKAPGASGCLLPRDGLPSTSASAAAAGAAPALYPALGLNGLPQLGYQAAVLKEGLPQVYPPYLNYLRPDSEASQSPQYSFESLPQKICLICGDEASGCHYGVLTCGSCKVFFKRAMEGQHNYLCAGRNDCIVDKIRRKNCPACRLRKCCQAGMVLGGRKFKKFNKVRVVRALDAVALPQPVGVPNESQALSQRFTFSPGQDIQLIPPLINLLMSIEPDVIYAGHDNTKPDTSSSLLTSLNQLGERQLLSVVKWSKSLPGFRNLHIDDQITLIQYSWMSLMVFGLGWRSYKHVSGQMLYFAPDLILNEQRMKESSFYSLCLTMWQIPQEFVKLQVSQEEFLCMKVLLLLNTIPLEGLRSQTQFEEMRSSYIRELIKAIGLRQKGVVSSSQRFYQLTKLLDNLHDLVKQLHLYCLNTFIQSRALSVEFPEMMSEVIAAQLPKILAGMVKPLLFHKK
# PR, AR, ER, GR and MR = test: cis-trans or co-transfection assay, steroid receptor panel (cross-reactivity); type: cell-based, human; details: as seen in the Tables
# [2] = system: uterine wet weight in ovariectomized Sprague-Dawely rats; test: Uterine wet weight assay (PR agonists); type: in vivo, rat; details: for effect on uterine wet weight when co-administered with estrone: MPA and Compound 210 at 0.3, 1.0 and 3.0 mg/rat, Compound 163 at 3 mg/rat
# Source text: The effectiveness of selected compounds of the present invention as PR agonists was investigated in the well recognized uterine wet weight assay, as described in G. J. Marcus, “Mitosis in the rat uterus during the estrous cycle, early pregnancy and early pseudopregnancy”, 10 Biol. Reprod., 447 (1974), S. […] J. Obstet. […] I. Dorfman, “Estrogens” (Ch. 2) and “Antiestrogens” (Ch. 3). in Methods in Hormone Research, ed. R. I. Dorfman, Academic Press, New York, New York, pp101-130 (1969), the disclosures of which are herein incorporated by reference. Four to five week old, ovariectomized, Sprague-Dawely rats (Harlan-Sprague-Dawely, Indianapolis, Ind.) were obtained 1 week after surgery and allowed to acclimate for an additional week after shipment. […] Louis, Mo.) a synthetic estrogen agonist, were fully dissolved in purified sesame oil (Croda, Parsippany, N.J.). […] Additional control groups of rats were administered estrone or vehicle (i.e. sesame oil) alone. Animals were sacrificed on the fourth day of the experiment.
# [3] = target: T3, human glucocorticoid receptor (GR) (Homo sapiens, UniProt P04150); test: Co-transfection assay, GR antagonist activity, CV-1 cells (pRShGR); type: cell-based; details: for GR Antagonist CV-1 Cells Efficacy (%): Table 4, antagonist mode, % maximal inhibition
# T3 construct: expressed in transfected cells; host or cells: CV-1 cells, transient transfection
# T3 sequence (P04150 1-777): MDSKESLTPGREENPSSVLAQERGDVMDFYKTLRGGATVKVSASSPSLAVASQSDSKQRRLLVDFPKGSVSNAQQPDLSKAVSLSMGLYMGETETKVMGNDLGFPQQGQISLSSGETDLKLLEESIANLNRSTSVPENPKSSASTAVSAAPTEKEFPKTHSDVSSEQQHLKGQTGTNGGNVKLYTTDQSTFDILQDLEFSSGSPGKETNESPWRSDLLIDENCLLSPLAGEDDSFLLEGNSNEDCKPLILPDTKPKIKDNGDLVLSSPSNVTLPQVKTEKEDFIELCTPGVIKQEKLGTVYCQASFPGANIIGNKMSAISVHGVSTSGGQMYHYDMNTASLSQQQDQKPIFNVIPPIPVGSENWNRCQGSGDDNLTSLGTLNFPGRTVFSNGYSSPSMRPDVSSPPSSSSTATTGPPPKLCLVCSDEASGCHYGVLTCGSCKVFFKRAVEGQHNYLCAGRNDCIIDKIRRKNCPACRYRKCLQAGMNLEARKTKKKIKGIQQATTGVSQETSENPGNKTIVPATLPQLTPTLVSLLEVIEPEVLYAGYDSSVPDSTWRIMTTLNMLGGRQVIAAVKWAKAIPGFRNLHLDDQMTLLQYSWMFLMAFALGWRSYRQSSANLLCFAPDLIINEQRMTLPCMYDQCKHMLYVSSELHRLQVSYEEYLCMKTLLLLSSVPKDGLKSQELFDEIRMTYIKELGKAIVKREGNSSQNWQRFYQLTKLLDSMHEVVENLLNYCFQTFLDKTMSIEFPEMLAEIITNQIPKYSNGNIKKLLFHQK
# [4] = target: T4, human mineralocorticoid receptor (MR) (Homo sapiens, UniProt P08235); test: Co-transfection assay, MR antagonist activity, CV-1 cells (pRShMR); type: cell-based; details: Table 4; antagonist mode; % maximal inhibition
# T4 construct: expressed in transfected cells; host or cells: CV-1 cells, transient transfection
# T4 sequence (P08235 1-984): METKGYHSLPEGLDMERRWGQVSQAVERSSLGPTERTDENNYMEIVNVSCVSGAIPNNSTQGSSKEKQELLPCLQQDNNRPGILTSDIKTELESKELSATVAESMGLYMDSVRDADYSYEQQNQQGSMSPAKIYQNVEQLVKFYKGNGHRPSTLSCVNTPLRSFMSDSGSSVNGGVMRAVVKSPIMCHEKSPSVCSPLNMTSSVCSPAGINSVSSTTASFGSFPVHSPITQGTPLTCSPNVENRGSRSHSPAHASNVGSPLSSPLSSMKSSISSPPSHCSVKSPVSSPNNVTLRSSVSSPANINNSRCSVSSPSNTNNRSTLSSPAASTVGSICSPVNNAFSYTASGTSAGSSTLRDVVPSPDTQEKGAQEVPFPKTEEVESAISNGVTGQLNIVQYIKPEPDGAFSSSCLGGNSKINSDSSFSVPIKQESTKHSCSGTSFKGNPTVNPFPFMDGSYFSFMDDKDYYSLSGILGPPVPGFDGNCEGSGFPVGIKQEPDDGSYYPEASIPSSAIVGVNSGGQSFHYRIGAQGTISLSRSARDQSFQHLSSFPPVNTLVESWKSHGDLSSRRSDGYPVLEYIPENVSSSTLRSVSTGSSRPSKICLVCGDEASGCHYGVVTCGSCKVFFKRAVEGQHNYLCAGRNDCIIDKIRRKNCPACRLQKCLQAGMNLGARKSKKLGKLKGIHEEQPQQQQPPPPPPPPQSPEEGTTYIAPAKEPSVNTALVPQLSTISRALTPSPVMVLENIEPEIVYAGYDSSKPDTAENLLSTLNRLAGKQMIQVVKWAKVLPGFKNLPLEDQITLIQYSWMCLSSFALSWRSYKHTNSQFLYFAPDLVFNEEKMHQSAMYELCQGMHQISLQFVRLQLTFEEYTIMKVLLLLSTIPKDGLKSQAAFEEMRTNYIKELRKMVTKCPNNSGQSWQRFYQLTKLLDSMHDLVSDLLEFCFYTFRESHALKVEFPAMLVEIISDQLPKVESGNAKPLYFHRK
# [5] = read-out: PR Antagonist CV-1 Cells Potency
# [6] = 0.3 mg/rat oral once a day for three days + E1 10 μg
# [7] = 1.0 mg/rat oral once a day for three days + E1 10 μg
# [8] = 3.0 mg/rat oral once a day for three days + E1 10 μg
smiles,measurement,setting,value
"CC1=CC(C)(C)Nc2ccc3c(c21)C(c1cccc(F)c1)Oc1ccccc1-3 (racemic) [Compound 191, (R/S)-5-(3-Fluorophenyl)-1,2-dihydro-2,2,4-trimethyl-5H-chromeno[3,4-f]quinoline]",EC50,human PR-B,9 nM
same,IC50,human PR-B; [5],150 nM
same,Ki,[1]; read-out: PR Binding Ki,1 nM
same,steroid receptor selectivity profile,"PR, AR, ER, GR and MR",highly selective PR agonists
"CCCCC1Oc2ccc(F)cc2-c2ccc3c(c21)C(C)=CC(C)(C)N3 (racemic) [Compound 210, (R/S)-5-Butyl-9-fluoro-1,2-dihydro-2,2,4-trimethyl-5H-chromeno[3,4-f]quinoline]",Mean Uterine Wet Weight,[2]; [6],110 mg
same,Mean Uterine Wet Weight,[2]; [7],100 mg
same,Mean Uterine Wet Weight,[2]; [8],100 mg
same,effect on uterine wet weight when co-administered with estrone,[2],decreased by approximately half
"CC1CC(C)(C)Nc2ccc(-c3cc(F)cc(C#N)c3)cc21 (racemic) [Compound 455, (R/S)-6-(3-Cyano-5-Fluorophenyl)-1,2,3,4-Tetrahydro-2,2,4-trimethylquinoline]",PR Agonist CV-1 Cells Efficacy (%),human PR-B,"na (na = not active (i.e. efficacy or <20 and potency of >10,000))"
same,PR Antagonist CV-1 Cells Efficacy (%),human PR-B,76%
same,EC50,human PR-B,> 10000 nM
same,IC50,human PR-B; [5],35 nM
same,Ki,[1]; read-out: PR Binding Ki,10 nM
same,steroid receptor selectivity profile,"PR, AR, ER, GR and MR",highly selective PR antagonists
"CC1=CC(C)(C)Nc2cc(C)c3c(c21)/C(=C/c1ccccc1)Oc1ccc(F)cc1-3 [Compound 377, (Z)-5-Benzylidene-9-Fluoro-1,2-dihydro-2,2,4,11-tetramethyl-5H-chromeno[3,4-f]quinoline]",PR Agonist CV-1 Cells Efficacy (%),human PR-B,101%
same,PR Antagonist CV-1 Cells Efficacy (%),human PR-B,"na (na = not active (i.e. efficacy or <20 and potency of >10,000))"
same,EC50,human PR-B,550 nM
same,IC50,human PR-B; [5],> 10000 nM
same,Ki,[1]; read-out: PR Binding Ki,20 nM
"CC1=CC(C)(C)Nc2ccc(-c3csc(C#N)c3)cc21 [Compound 452, 6-(5-Cyano-3-thienyl)-1,2-dihydro-2,2,4-trimethylquinoline]",IC50,human PR-B,24 nM
same,EC50,human PR-B,2400 nM
same,Ki,[1],17 nM
"CC(=O)O[C@]1(C(C)=O)CC[C@H]2[C@@H]3C[C@H](C)C4=CC(=O)CC[C@]4(C)[C@H]3CC[C@@]21C [MPA, medroxyprogesterone acetate, reference compound]",Mean Uterine Wet Weight,[2]; [6],140 mg
same,Mean Uterine Wet Weight,[2]; [7],130 mg
same,Mean Uterine Wet Weight,[2]; [8],130 mg
same,effect on uterine wet weight when co-administered with estrone,[2],significantly decreased
"CC#C[C@]1(O)CC[C@H]2[C@@H]3CCC4=CC(=O)CCC4=C3[C@@H](c3ccc(N(C)C)cc3)C[C@@]21C [RU486, (11 beta, 17 beta)-11-[4-(dimethylamino)phenyl]-17-hydroxy-17-(1-propynyl)estra-4,9-dien-3-one, reference compound]",GR Antagonist CV-1 Cells Efficacy (%),[3],100%
same,MR Antagonist CV-1 Cells Efficacy (%),[4],77%
"CC(=O)S[C@@H]1CC2=CC(=O)CC[C@]2(C)[C@H]2CC[C@@]3(C)[C@@H](CC[C@@]34CCC(=O)O4)[C@H]12 [Spir, reference compound]",IC50,[3],2000 nM
same,GR Antagonist CV-1 Cells Efficacy (%),[3],80%
same,MR Antagonist CV-1 Cells Efficacy (%),[4],96%
